This is an account of results in patent publication US20260234165A1, “MACROCYCLIC COMPOUNDS, PREPARATION METHOD THEREFOR, AND USE THEREOF” (GENFLEET THERAPEUTICS (SHANGHAI) INC., priority 2004, published 2026).

Like-named read-outs stand apart in the source and are kept apart here.

The test system of one test is NCI-H441 cells. The experiment in a line: 3D cell proliferation assay (CellTiter Glo-3D), NCI-H441. Type of test: cell-based, human. The settings on record: medium with 2% FBS, read-out: H441 AP IC50. The essentials:
(§1)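 Luminescent CellTiter-Glo 3D readout after 5-day compound exposure (3.16-fold series, 0.1% DMSO, 2% FBS medium) at 37°C on 800 cells/well plated the day before; IC50 from four-parameter curve of inhibition relative to DMSO and blank wells.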
On the technique in general: In ATP-based viability assays light output follows the ATP content of the culture.

Test [1] deals with AsPC-1 cells (KRAS G12D mutation). The experiment in a line: 3D cell proliferation assay (CellTiter Glo-3D), AsPC-1. Type of test: cell-based, human. The settings on record: medium with 2% FBS, read-out: AsPC-1 AP IC50. The essentials:
as §1

Where [2] appears, read: Homo sapiens, NCI-H441, 3D cell proliferation (CellTiter Glo-3D).
Where [3] appears, read: Homo sapiens, ASPC1, 3D cell proliferation (CellTiter Glo-3D).
Where [4] appears, read: 3D cell proliferation (CellTiter Glo-3D).

Regarding `CCn1c(-c2cc(C#CCN3CCC3)cnc2[C@H](C)OC)c2c3cc(ccc31)-c1csc(n1)C[C@H](NC(=O)[C@H]1[C@H](C)[C@@H]1C)C(=O)N1CCC[C@H](N1)C(=O)OCC(C)(C)C2` (single isomer, unassigned) [Compound Z554], the values for the IC50 (in the test with NCI-H441 cells (setting [2]); in test [1] (setting [3])) were 0.83 nM and 1.18 nM, respectively.

`CO[C@@H](C)c1ncc(C#CCN2CCCOCC2)cc1-c1c2c3cc(ccc3n1CC(F)(F)F)-c1csc(n1)C[C@H](NC(=O)[C@H]1[C@H](C)[C@@H]1C)C(=O)N1CCC[C@H](N1)C(=O)OCC(C)(C)C2` (atropisomer, axis not shown; (Ra)) [Compound Z700, N-((6^3S,4S,Z)-1^1-(2,2,2-trifluoroethyl)-(Ra)-1^2-(2-((S)-1-methoxyethyl)-(5-(3-(1,4-oxazepan-4-yl)prop-1-yn-1-yl))-pyridin-3-yl)-10,10-dimethyl-5,7-dioxo-6^1,6^2,6^3,6^4,6^5,6^6-hexahydro-1^1H-8-oxa-2(4,2)-thiazola-1(5,3)-indola-6(1,3)-pyridazinacycloundecaphane-4-yl)-2,3-dimethylcyclopropane-1-carboxamide]: the IC50 in the test on NCI-H441 cells (setting [4]) is 0.17 nM; in test [1] (setting [4]), 0.18 nM.

`CCn1c(-c2cc(C#CCN3CCCOCC3)cnc2C(C)C)c2c3cc(ccc31)-c1csc(n1)C[C@H](NC(=O)[C@H]1[C@H](C)[C@@H]1C)C(=O)N1CCC[C@H](N1)C(=O)OCC(C)(C)C2` (atropisomer, axis not shown; (Sa)) [Compound Z811-2, (1r,2R,3S)—N-((6^3S,4S,Z)—(Sa)-1-(5-(3-(1,4-oxazepan-4-yl)prop-1-yn-1-yl)-2-isopropylpyridin-3-yl)-1^1-ethyl-10,10-dimethyl-5,7-dioxo-6^1,6^2,6^3,6^4,6^5,6^6-hexahydro-1^1H-8-oxa-2(4,2)-thiazola-1(5,3)-indola-6(1,3)-pyridazinacycloundecaphane-4-yl)-2,3-dimethylcyclopropane-1-carboxamide]: the IC50 was 0.63 nM in the test on NCI-H441 cells (setting [4]) and 1.41 nM in test [1] (setting [4]).

As to `CCn1c(-c2cc(C#CCN3CCCOCC3)cnc2[C@H](C)OC)c2c3cc(ccc31)-c1csc(n1)C[C@H](NC(=O)[C@H]1[C@H](C)[C@@H]1C)C(=O)N1CCC[C@H](N1)C(=O)OCC(C)(C)C2` (single isomer, unassigned) [Compound Z504], the IC50 with NCI-H441 cells (setting [2]) worked out at 0.31 nM; in test [1] (setting [3]) it was 0.4 nM.

With `CCn1c(-c2cc(C#CCN3CCCOCC3)cnc2[C@H](C)OC)c2c3cc(ccc31)-c1csc(n1)C[C@H](NC(=O)[C@H]1C[C@@H]1C)C(=O)N1CCC[C@H](N1)C(=O)OCC(C)(C)C2` (single isomer, unassigned) [Compound Z604], the IC50 with NCI-H441 cells (setting [2]) worked out at 0.45 nM; in test [1] (setting [3]), 0.74 nM.

As for `CCn1c(-c2cc(C#CCN3CCCOCC3)cnc2[C@H](C)OC)c2c3cc(ccc31)-c1csc(n1)C[C@H](NC(=O)CC1CC1)C(=O)N1CCC[C@H](N1)C(=O)OCC(C)(C)C2` (atropisomer, axis not shown; (Ra)) [Compound Z915], the IC50 with NCI-H441 cells (setting [2]) is 1.04 nM; in test [1] (setting [3]) it was 2.82 nM.

As to `CCn1c(-c2cc(C#CCN3CCCOCC3)cnc2[C@H](C)OC)c2c3cc(ccc31)-c1csc(n1)C[C@H](NC(=O)CC(C)C)C(=O)N1CCC[C@H](N1)C(=O)OCC(C)(C)C2` (single isomer, unassigned) [Compound Z803], the IC50 is 0.61 nM in the test with NCI-H441 cells (setting [2]) and 1.49 nM in test [1] (setting [3]).

For `CCn1c(-c2cc(C#CCN(C)CCOC)cnc2[C@H](C)OC)c2c3cc(ccc31)-c1csc(n1)C[C@H](NC(=O)[C@H]1[C@H](C)[C@@H]1C)C(=O)N1CCC[C@H](N1)C(=O)OCC(C)(C)C2` (atropisomer, axis not shown; (Ra)) [Compound Z788], the IC50 in the test on NCI-H441 cells (setting [4]) came out at 0.28 nM; in test [1] (setting [4]), 0.78 nM.

On to `CCn1c(-c2cc(C#CCN3CCN(C)C(=O)C3)cnc2[C@H](C)OC)c2c3cc(ccc31)-c1csc(n1)C[C@H](NC(=O)[C@H]1[C@H](C)[C@@H]1C)C(=O)N1CCC[C@H](N1)C(=O)OCC(C)(C)C2` (atropisomer, axis not shown; (Ra)) [Compound Z793], for which the values for the IC50 (with NCI-H441 cells (setting [2]); in test [1] (setting [3])) were 0.14 nM and 0.19 nM, respectively.

One may read the IC50 as the concentration that inhibits the measured activity by half.
